Literature values as cited in patent US20100092557A1 (priority 2006, published 2010).

Conditions: general statement in the background; species and matrix not given

| SMILES | half-life [h] |
| --- | --- |
| O=C(O)Cc1ccccc1Nc1c(Cl)cccc1Cl [diclofenac] | 1.1 |
| O=C(O)c1ccccc1Nc1cccc(C(F)(F)F)c1 [flufenamic acid] | 1.4 |
| COc1ccc2c(c1)c(CC(=O)O)c(C)n2C(=O)c1ccc(Cl)cc1 [indomethacin] | 4.6 |
| CCCCC1C(=O)N(c2ccccc2)N(c2ccccc2)C1=O [phenylbutazone] | 68 |
| CN1C(C(=O)Nc2ccccn2)=C(O)c2ccccc2S1(=O)=O [piroxicam] | 57 |
| CC(C(=O)O)c1ccc(C(=O)c2ccccc2)s1 (stereo not drawn) [tiaprofenic acid] | 3.0 |
